Measurements reported in patent US20100041089A1, “IMPROVED METHOD FOR DETECTING CHEMICAL […]” (priority 2006, published 2010).

System: yeast genes (expressed mRNA)
Assay: DNA chip measurement of expressed mRNA of yeast genes after culture with a toxic chemical substance
Format: cell-based, Saccharomyces cerevisiae S288C
Details: for level of expressed mRNA in the presence of chemical substance / level in the absence of chemical substance: cultured two hours with the chemical substance; for The level of expressed mRNA in the presence of chemical substance/The level of expressed mRNA in the absence of chemical substance: cultured two hours with substance
Description: Yeast (Saccharomyces cerevisiae S288C (a SUC2mal mel gap2 CUP1)) were cultured at 25° C. on YPD medium (yeast extract 1%, polypeptone 2%, glucose 2%). One of toxic chemical substances was added to the cell at logarithmic growth phase, and the cell was further cultured for two hours. Cell was cultured without any chemical substance in the same condition, and was used as a control. Concentrations of the chemical substances were defined to inhibit the growth of the yeast but not lead to death.
After the completion of cultivation, the culture was centrifuged to collect the cells. To the cells, sodium acetate buffer (50 mM sodium acetate, 10 mM EDTA, 1% SDS) was added, and the mixture was shaken at 65° C. for five minutes, followed by returning to room temperature, and obtaining the supernatant, which procedure was repeated two times. To the supernatant, ½ amount of a solution of phenol/chloroform (1:1) was added, and the mixture was centrifuged to give a supernatant, an equal amount of chloroform was added, and the mixture was centrifuged to give a supernatant. To the supernatant, an equal amount of isopropanol containing 0.3 M sodium acetate was added, and the mixture was allowed to stand at room temperature for 30 minutes, after which the mixture was centrifuged to give sediment of the whole RNAs. Seventy % ethanol was added to the sediment, and the mixture was again centrifuged to give sediment, which was then dried and dissolved in water. mRNA was isolated from the whole RNAs as followings. In view of the fact that a poly A chain is attached to the 3′ terminus of mRNA, a polynucleotide having a poly T structure which was immobilized on the surface of latex beads was used to trap the mRNA, and then the mRNA was washed and eluted with spine column (Oligotex-dT30<Super>mRNA Purification Kit, Takara). Reverse transcription of the mRNA was conducted with a reverse transcriptase (Super Script II Reverse Transcriptase; catalogue No. 18064-014, GibcoBRL) using fluorescence-labeled nucleotides to give cDNAs that were introduced with Cy3-dUTP or Cy5-dUTP during the reverse transcription.
The labeled cDNAs were dissolved in TE buffer (10 mM Tris-HCl/1 mM EDTA, pH 8.0), and the solution was dropped on the DNA chip containing the whole genes of yeast (DNA Chip Research Inc. Japan) so that the cDNAs were hybridized on the DNA chip at 65° C. for over 12 hours. The fluoresces intensity of the DNA chip was read with a scanner, and the ratio relative to the fluorescence intensity resulting from the absence of chemical substance was estimated as the following, which is shown in Tables 1 to 9.
In the Tables, “Intensity” indicated in the rightmost column is a value of the level of expressed mRNA of each gene in control cells as divided by the average level of the expressions of the whole genes. A gene of which mRNA level is lower in control, and is higher in cases of addition of chemical substance, is especially useful in the detection of toxic substances.
Here, when a ratio of an amount of mRNA expressed in the presence of the chemical substance to an amount of mRNA expressed in the absence of the chemical substance is two or more, then it is considered significant.

## CCCCCCCCCCCCc1ccc(S(=O)(=O)[O-])cc1.[Na+] [(17), Sodium dodecylbenzosulfonate]
Gene YBR036C, Metabolism protein genes, DNA chip fluorescence ratio
  The level of expressed mRNA in the presence of chemical substance/The level of expressed mRNA in the absence of chemical substance, yeast gene YBR036C: 2.1
Gene YBR298C, Metabolism protein genes, DNA chip fluorescence ratio
  The level of expressed mRNA in the presence of chemical substance/The level of expressed mRNA in the absence of chemical substance, yeast gene YBR298C: 0.9
Gene YDL067C (mitochondria-located protein gene), yeast cultured two hours with chemical substance, DNA chip fluorescence ratio to control
  The level of expressed mRNA in the presence of chemical substance/The level of expressed mRNA in the absence of chemical substance, yeast gene YDL067C: 1.2
Gene YDL078C, Metabolism protein genes, DNA chip fluorescence ratio
  The level of expressed mRNA in the presence of chemical substance/The level of expressed mRNA in the absence of chemical substance, yeast gene YDL078C: 1.1
Gene YDL215C, Metabolism protein genes, DNA chip fluorescence ratio
  The level of expressed mRNA in the presence of chemical substance/The level of expressed mRNA in the absence of chemical substance, yeast gene YDL215C: 1.1
Gene YDR079W (mitochondria-located protein gene), yeast cultured two hours with chemical substance, DNA chip fluorescence ratio to control
  The level of expressed mRNA in the presence of chemical substance/The level of expressed mRNA in the absence of chemical substance, yeast gene YDR079W: 1.1
Gene YDR297W, Metabolism protein genes, DNA chip fluorescence ratio
  The level of expressed mRNA in the presence of chemical substance/The level of expressed mRNA in the absence of chemical substance, yeast gene YDR297W: 1.9
Gene YDR387C, Metabolism protein genes, DNA chip fluorescence ratio
  The level of expressed mRNA in the presence of chemical substance/The level of expressed mRNA in the absence of chemical substance, yeast gene YDR387C: 1.2
Gene YGL035C, Metabolism protein genes, DNA chip fluorescence ratio
  The level of expressed mRNA in the presence of chemical substance/The level of expressed mRNA in the absence of chemical substance, yeast gene YGL035C: 0.9
Gene YGR062C (mitochondria-located protein gene), yeast cultured two hours with chemical substance, DNA chip fluorescence ratio to control
  The level of expressed mRNA in the presence of chemical substance/The level of expressed mRNA in the absence of chemical substance, yeast gene YGR062C: 0.9
Gene YGR287C, Metabolism protein genes, DNA chip fluorescence ratio
  The level of expressed mRNA in the presence of chemical substance/The level of expressed mRNA in the absence of chemical substance, yeast gene YGR287C: 1.0
Gene YJL070C, Metabolism protein genes, DNA chip fluorescence ratio
  The level of expressed mRNA in the presence of chemical substance/The level of expressed mRNA in the absence of chemical substance, yeast gene YJL070C: 1.1
Gene YJL096W (mitochondria-located protein gene), yeast cultured two hours with chemical substance, DNA chip fluorescence ratio to control
  The level of expressed mRNA in the presence of chemical substance/The level of expressed mRNA in the absence of chemical substance, yeast gene YJL096W: 1.1
Gene YJL180C (mitochondria-located protein gene), yeast cultured two hours with chemical substance, DNA chip fluorescence ratio to control
  The level of expressed mRNA in the presence of chemical substance/The level of expressed mRNA in the absence of chemical substance, yeast gene YJL180C: 0.9
Gene YKR009C, Metabolism protein genes, DNA chip fluorescence ratio
  The level of expressed mRNA in the presence of chemical substance/The level of expressed mRNA in the absence of chemical substance, yeast gene YKR009C: 1.9
Gene YLR295C (mitochondria-located protein gene), yeast cultured two hours with chemical substance, DNA chip fluorescence ratio to control
  The level of expressed mRNA in the presence of chemical substance/The level of expressed mRNA in the absence of chemical substance, yeast gene YLR295C: 0.9
Gene YLR351C, Metabolism protein genes, DNA chip fluorescence ratio
  The level of expressed mRNA in the presence of chemical substance/The level of expressed mRNA in the absence of chemical substance, yeast gene YLR351C: 1.3
Gene YLR375W, Metabolism protein genes, DNA chip fluorescence ratio
  The level of expressed mRNA in the presence of chemical substance/The level of expressed mRNA in the absence of chemical substance, yeast gene YLR375W: 1.0
Gene YMR023C (mitochondria-located protein gene), yeast cultured two hours with chemical substance, DNA chip fluorescence ratio to control
  The level of expressed mRNA in the presence of chemical substance/The level of expressed mRNA in the absence of chemical substance, yeast gene YMR023C: 1.1
Gene YMR267W (mitochondria-located protein gene), yeast cultured two hours with chemical substance, DNA chip fluorescence ratio to control
  The level of expressed mRNA in the presence of chemical substance/The level of expressed mRNA in the absence of chemical substance, yeast gene YMR267W: 0.9
Gene YMR267W, Metabolism protein genes, DNA chip fluorescence ratio
  The level of expressed mRNA in the presence of chemical substance/The level of expressed mRNA in the absence of chemical substance, yeast gene YMR267W: 0.9
Gene YMR278W, Metabolism protein genes, DNA chip fluorescence ratio
  The level of expressed mRNA in the presence of chemical substance/The level of expressed mRNA in the absence of chemical substance, yeast gene YMR278W: 1.0
Gene YMR293C, Metabolism protein genes, DNA chip fluorescence ratio
  The level of expressed mRNA in the presence of chemical substance/The level of expressed mRNA in the absence of chemical substance, yeast gene YMR293C: 0.8
Gene YNL073W (mitochondria-located protein gene), yeast cultured two hours with chemical substance, DNA chip fluorescence ratio to control
  The level of expressed mRNA in the presence of chemical substance/The level of expressed mRNA in the absence of chemical substance, yeast gene YNL073W: 0.8
Gene YNR072W, Metabolism protein genes, DNA chip fluorescence ratio
  The level of expressed mRNA in the presence of chemical substance/The level of expressed mRNA in the absence of chemical substance, yeast gene YNR072W: 1.3
Gene YOL096C, Metabolism protein genes, DNA chip fluorescence ratio
  The level of expressed mRNA in the presence of chemical substance/The level of expressed mRNA in the absence of chemical substance, yeast gene YOL096C: 1.2
Gene YOR180C, Metabolism protein genes, DNA chip fluorescence ratio
  The level of expressed mRNA in the presence of chemical substance/The level of expressed mRNA in the absence of chemical substance, yeast gene YOR180C: 0.9
Gene YOR316C (mitochondria-located protein gene), yeast cultured two hours with chemical substance, DNA chip fluorescence ratio to control
  The level of expressed mRNA in the presence of chemical substance/The level of expressed mRNA in the absence of chemical substance, yeast gene YOR316C: 0.8
Gene YOR363C, Metabolism protein genes, DNA chip fluorescence ratio
  The level of expressed mRNA in the presence of chemical substance/The level of expressed mRNA in the absence of chemical substance, yeast gene YOR363C: 1.3
Gene YPL040C (mitochondria-located protein gene), yeast cultured two hours with chemical substance, DNA chip fluorescence ratio to control
  The level of expressed mRNA in the presence of chemical substance/The level of expressed mRNA in the absence of chemical substance, yeast gene YPL040C: 0.8
Gene YPL134C (mitochondria-located protein gene), yeast cultured two hours with chemical substance, DNA chip fluorescence ratio to control
  The level of expressed mRNA in the presence of chemical substance/The level of expressed mRNA in the absence of chemical substance, yeast gene YPL134C: 1.3
Gene YPR184W, Metabolism protein genes, DNA chip fluorescence ratio
  The level of expressed mRNA in the presence of chemical substance/The level of expressed mRNA in the absence of chemical substance, yeast gene YPR184W: 1.0
Yeast gene YAL018C
  level of expressed mRNA in the presence of chemical substance / level in the absence of chemical substance: 0.9
Yeast gene YAL053W
  The level of expressed mRNA in the presence of chemical substance/The level of expressed mRNA in the absence of chemical substance: 1.2
Yeast gene YAR047C
  level of expressed mRNA in the presence of chemical substance / level in the absence of chemical substance: 1.7
Yeast gene YAR064W
  level of expressed mRNA in the presence of chemical substance / level in the absence of chemical substance: 0.9
Yeast gene YBL044W
  level of expressed mRNA in the presence of chemical substance / level in the absence of chemical substance: 0.8
Yeast gene YBL048W
  The level of expressed mRNA in the presence of chemical substance/The level of expressed mRNA in the absence of chemical substance: 1.3
Yeast gene YBL107C
  The level of expressed mRNA in the presence of chemical substance/The level of expressed mRNA in the absence of chemical substance: 0.9
Yeast gene YBR012C
  level of expressed mRNA in the presence of chemical substance / level in the absence of chemical substance: 1.4
Yeast gene YBR066C
  level of expressed mRNA in the presence of chemical substance / level in the absence of chemical substance: 1.2
Yeast gene YBR124W
  level of expressed mRNA in the presence of chemical substance / level in the absence of chemical substance: 0.9
Yeast gene YBR162C
  level of expressed mRNA in the presence of chemical substance / level in the absence of chemical substance: 1.2
Yeast gene YBR287W
  level of expressed mRNA in the presence of chemical substance / level in the absence of chemical substance: 3.2
Yeast gene YCL042W
  level of expressed mRNA in the presence of chemical substance / level in the absence of chemical substance: 0.8
Yeast gene YCL056C
  level of expressed mRNA in the presence of chemical substance / level in the absence of chemical substance: 1.2
Yeast gene YCR007C
  level of expressed mRNA in the presence of chemical substance / level in the absence of chemical substance: 2.6
Yeast gene YDL046W
  level of expressed mRNA in the presence of chemical substance / level in the absence of chemical substance: 1.2
Yeast gene YDL072C
  The level of expressed mRNA in the presence of chemical substance/The level of expressed mRNA in the absence of chemical substance: 1.6
Yeast gene YDL204W
  The level of expressed mRNA in the presence of chemical substance/The level of expressed mRNA in the absence of chemical substance: 1.8
Yeast gene YDL222C
  The level of expressed mRNA in the presence of chemical substance/The level of expressed mRNA in the absence of chemical substance: 0.9
Yeast gene YDR090C
  level of expressed mRNA in the presence of chemical substance / level in the absence of chemical substance: 1.1
